Results published in US6740680B1, “Pharmaceutical compositions to tetrac and methods of use thereof” (Becton Pharma, Inc., priority 1999, dated 2004).
Read-outs that look alike come from different tables or passages of the source.

Test system: Cynomologus monkeys
Protocol: Preparation of Tetrac for injection. Tetrac from Rhône-Poulenc and Henning Laboratory were compared. Tetrac powder was dissolved in sterile 0.1 N NaOH at 2 mg/ml. This solution was made before the beginning of each treatment period and stored at 4° C. in polypropylene tubes, protected from light. Each solution for injection was prepared daily after dilution in the vehicle (0.9% NaCl) containing 5% monkey serum (v/v), and was stored at room temperature and protected from light, according to the storage conditions of the test substance.
Animals. One male and one female purpose bred Cynomologus monkeys Macaca fascicularis were supplied by Centre de Recherches Primatologiques, Port Louis, Mauritius. […] The animals were individually housed in stainless steel cages and a metallic tray was placed under each cage in order to collect urine. The animals were fed daily with approximately 200 grams each of U.A.R. 107 C pelleted diet (batch Nos. 61106, 61207 and 70317, U.A.R., Villemoisson-sur-Orge, France), distributed about 2 hours after treatment with Tetrac. No contaminants were known to have been present in the diet, drinking water or bedding material at levels which may be expected to have interfered with or prejudiced the outcome of the study.
Weeks 1 to 3 and weeks 7 to 9: the animals received the test substance TETRAC provided either by Rhone-Poulenc or by Henning Laboratories over a three-week period.
Weeks 4 to 6 and weeks 10 to 12: a washout period of three weeks was observed.
Administration of Tetrac. Tetrac was administered via intramuscular injection into the thigh muscle once a day, at approximately the same time each day, several days a week over a three week period. The quantity of tetrac administered to each animal was adjusted according to the most recently recorded body weight. A constant dosage-volume of 0.5 ml/kg was used.
Morbidity and mortality. The animals were checked at least twice a day, for mortality and signs of morbidity.
Body weight. Body weight was recorded for each animal once before the beginning of the treatment period, on the first day of the treatment period, and at least once a week until the end of the study.
Food consumption. Food consumption was estimated for each animal by calculating the difference between the quantity given and that remaining the next morning. This was estimated daily during the week before treatment and throughout the study. Food consumption was expressed as a percentage of the quantity given. Whenever fasting was required, the food was removed at the end of the day and the estimation of consumption was made at that time, food being made available for approximately five hours on that day.

[1] = Female, treatment period (3 weeks, 75 μg/kg/day i.m.)
[2] = Female, washout period (3 weeks)
[3] = Male, treatment period (3 weeks, 75 μg/kg/day i.m.)

| SMILES | Body weight gain (%) (Female, treatment period) | Food consumption 75%: days of observation/number of days in period (Female, treatment period) | Food consumption 100%: days of observation/number of days in period (Female, treatment period) | Food consumption (in words) (Female, treatment period) | Body weight gain [1] | Body weight gain (%) (Female, washout period) | Food consumption 75%: days of observation/number of days in period (Female, washout period) | Food consumption 100%: days of observation/number of days in period (Female, washout period) | Body weight gain [2] | Body weight gain (%) (Male, treatment period) | Food consumption 100%: days of observation/number of days in period (Male, treatment period) | Body weight gain [3] | Food consumption 100%: days of observation/number of days in period (Male, washout period) | Body weight gain (Male, washout period (3 weeks)) | Food consumption 75%: days of observation/number of days in period (Male, treatment period) | Body weight gain (%) (Male, washout period) |
| --- | --- | --- | --- | --- | --- | --- | --- | --- | --- | --- | --- | --- | --- | --- | --- | --- |
| O=C(O)Cc1cc(I)c(Oc2cc(I)c(O)c(I)c2)c(I)c1 [Tetrac from Henning Laboratory, 3,3′,5,5′-tetraiodothyroacetic acid] | g (+9%) | 75%: 13/21 | 100%: 8/21 | slightly lower food consumption | +300 g | g (+3%) | 75%: 3/21 | 100%: 18/21 | +100 g | g (+3%) | 100%: 21/21 | +200 g | 100%: 21/21 | 0 g |  |  |
| O=C(O)Cc1cc(I)c(Oc2cc(I)c(O)c(I)c2)c(I)c1 [Tetrac from Rhône-Poulenc, 3,3′,5,5′-tetraiodothyroacetic acid] | g (+8%) | 75%: 7/21 | 100%: 14/21 |  | +300 g |  | 75%: 5/21 | 100%: 16/21 | 0 g | g (+2%) | 100%: 20/21 | +100 g | 100%: 21/21 | +100 g | 75%: 1/21 | g (+2%) |
